From patent US20230406850A1, “CRYSTALLINE FORM OF HETEROCYCLIC COMPOUND, PREPARATION METHOD THEREFOR AND APPLICATION THEREOF” (WUHAN LL SCIENCE AND TECHNOLOGY DEVELOPMENT CO., LTD., priority 2020, published 2023)
Values after ≈ are worked out from the molar mass of the structure shown. Like-named read-outs stand apart in the source and are kept apart here.

How the values were obtained:
[1] = Dynamic vapor sorption (DVS) hygroscopicity; type: physicochemical
Description: The solid was analyzed by DVS using IGA sorp dynamic vapor sorption instrument. • Temperature: 25° C. • Gas flow: 250 mL/min. • Scan cycle: 2. • Minimum test time: 30 min. • Maximum test time: 2 hours. • Waiting for balance: 98%.

[2] = Solid form change on dehydration, drying or ambient humidity (XRPD); type: physicochemical; conditions: heating to dehydration, then ambient humidity
From the text: Combined with DSC and TGA pattern, it can be seen that the product is hydrate with about 0.34 water molecules.

[3] = Stability of crystalline form III slurried in DMSO/water mixed solvents; type: physicochemical; conditions: for The experimental results (crystalline form): slurried three days at room temperature
[4] = Solubility in DMSO and DMSO/water mixed solvents; type: physicochemical
[5] = Physical and chemical stability (stability boxes, XRPD and HPLC); type: physicochemical; conditions: for Purity -7 days (peak area %) / XRPD: 7 days
Description: About 10 mg of crystalline forms I, III and V were placed in the stability boxes at 40° C./75% RH (open) and 60° C. (covered) for seven days, and some samples were taken out for XRPD and HPLC tests at 0 and 7 days, respectively, to investigate their physical and chemical stability.

[6] = Solubility in biological media SGF, FaSSIF and FeSSIF; type: physicochemical
Description: Compared with other crystalline forms, crystalline forms I, III and V show good solid properties, so their solubility was tested respectively.
10 mg of the sample was weighed, and then 2.0 mL of biological media buffer (i.e. the target concentration is 5 mg/mL) was added to form a suspension. The mixture was put in a constant temperature water bath shaker (37° C., 100 rpm), and sampled 500 μL at 0.5, 2 and 24 hours respectively. After filtration, the pH value and HPLC concentration of filtrate were tested respectively, and the solid sample obtained by filtration was tested by XRPD.

[7] = Pharmacokinetics of crystalline form III, fasting and non-fasting; type: in vivo, Beagle dog; conditions: for AUC(0-inf) / Cmax / MRT last / Tmax / half-life / AUC(0-t): beagle, dog, po, 100 mg/kg, 100 mg/kg po
Description: Beagle dog (general grade, Beijing Masi Biotechnology Co., Ltd.) was given compound A by single oral gavage to study the pharmacokinetics of the compound in plasma. The test drug (100 mg/kg dosage, 5 mL/kg administration volume) was given by gavage, and samples were collected at 10 minutes, 30 minutes, 1 hour, 2 hours, 4 hours, 6 hours, 8 hours, 10 hours, 24 hours and 48 hours after administration: peripheral venipuncture was performed, and about 1.0 mL whole blood was collected from each animal at every time point, and blood samples were collected. Within 60 minutes after blood collection, 0.2 mL of whole blood was separated into a cryopreservation tube, and deionized water was added at a ratio of 1:1, which was mixed upside down and then frozen. The remaining samples were centrifuged at 2,000 g at 2 to 8° C. for 10 min to obtain plasma samples, and the hemolysis of each sample was recorded, and the influence on detection was evaluated, and then the color of plasma was observed and recorded on the blood collection table (“−” means no hemolysis, “+” means pink supernatant and “++” means red supernatant).
The concentration of compound A in plasma was determined by LC-MS/MS method (Non-GLP). The pharmacokinetic parameters were calculated by WinNonlin (Phoenix™, version 8.1) or other similar software. If applicable plasma drug concentration-time data are available, the following pharmacokinetic parameters are calculated: CL (clearance), Vss (steady-state apparent volume of distribution), T1/2 (elimination half-life), Cmax (peak concentration), Tmax (peak time), AUC (area under the concentration-time curve), MRT (mean residence time). Pharmacokinetic data were described by descriptive statistics, such as mean, standard deviation and sample size.

[8] = female, whole blood, Non-fast, blood
[9] = female, whole blood, fast, blood
[10] = male, whole blood, Non-fast, blood

In the case of `COC(=O)N1CCO[C@@H](Cc2c(-c3c(F)cc(S(N)(=O)=O)cc3F)nc3cc(Cl)ccn23)C1` [Crystalline form III, methyl (S)-2-((7-chloro-2-(2,6-difluoro-4-sulfamoylphenyl)imidazo[1,2-a]pyridin-3-yl)methyl)morpholine-4-carboxylate], the “XRPD before and after the DVS test” value [1] is reported as “no obvious change in the XRPD”, the “DVS pattern, behaviour in words” value ([1]; 25° C.) is reported as “the water content changes little in a wide humidity range” and the “crystalline form after dehydration” value [2] is reported as “becomes crystalline form III again”. The “The experimental results (crystalline form)” value (“The experimental results” below) ([3]; DMSO/Water 1/2 V/V) was “Crystalline form III”, the “The experimental results” value ([3]; DMSO/Water 1/4 V/V) was “Crystalline form III” and the “The experimental results” value ([3]; DMSO/Water 2/3 V/V) was “Crystalline form III”. For the same compound, the “water content of DMSO/water in which the form is stable without crystal transformation” value ([3]; room temperature) was “higher than 60 % (volume percentage)”, the Solubility ([4]; aqueous with cosolvent or surfactant or cyclodextrin, DMSO/Water 1:2, RT) was roughly 500 µg/mL (≈ 998 µM) and the Solubility ([4]; aqueous with cosolvent or surfactant or cyclodextrin, DMSO/Water 1:3, RT) was roughly 280 µg/mL (≈ 559 µM). The Solubility ([4]; aqueous with cosolvent or surfactant or cyclodextrin, DMSO/Water 1:4, RT) was less than 250 µg/mL, the Solubility ([4]; organic solvent or mixture, DMSO, RT) was greater than 200000 µg/mL and the “Initial purity (Peak area %)” value ([5]; 0 days) was 99.34 peak area %. For the same compound, the “Purity -7 days (peak area %)” value ([5]; 40° C./75% RH (open)) was 99.35 peak area %, the XRPD ([5]; 40° C./75% RH (open)) was “Constant” and the “stability conclusion in words” value ([5]; 40° C./75% RH and 60° C., seven days) was “good physical and chemical stability”. For the same compound, the “Purity -7 days (peak area %)” value ([5]; 60° C. (covered)) was 99.35 peak area %, the XRPD ([5]; 60° C. (covered)) was “Constant” and the “XRPD of remaining solid” value ([6]; FaSSIF, 0.5 h) was “Unchanged”. For the same compound, the pH of filtrate ([6]; FaSSIF, 0.5 h) was 6.4, the Solubility ([6]; FaSSIF, 0.5 h, 37° C.) was 0.023 mg/mL (≈ 45.9 µM) and the “XRPD of remaining solid” value ([6]; FaSSIF, 2 h) was “Unchanged”. The pH of filtrate ([6]; FaSSIF, 2 h) was 6.4, the Solubility ([6]; FaSSIF, 2 h, 37° C.) was 0.025 mg/mL (≈ 49.9 µM) and the “XRPD of remaining solid” value ([6]; FaSSIF, 24 h) was “Unchanged”. For the same compound, the pH of filtrate ([6]; FaSSIF, 24 h) was 6.4, the Solubility ([6]; FaSSIF, 24 h, 37° C.) was 0.033 mg/mL (≈ 65.9 µM) and the “XRPD of remaining solid” value ([6]; FeSSIF, 0.5 h) was “Unchanged”. For the same compound, the pH of filtrate ([6]; FeSSIF, 0.5 h) was 4.9, the Solubility ([6]; FeSSIF, 0.5 h, 37° C.) was 0.074 mg/mL (≈ 148 µM) and the “XRPD of remaining solid” value ([6]; FeSSIF, 2 h) was “Unchanged”. For the same compound, the pH of filtrate ([6]; FeSSIF, 2 h) was 4.8, the Solubility ([6]; FeSSIF, 2 h, 37° C.) was 0.088 mg/mL (≈ 176 µM) and the “XRPD of remaining solid” value ([6]; FeSSIF, 24 h) was “Unchanged”. It also gave a pH of filtrate ([6]; FeSSIF, 24 h) of 4.9, a Solubility ([6]; FeSSIF, 24 h, 37° C.) of 0.120 mg/mL (≈ 240 µM) and a solubility at 0.5 h ([6]; SGF, 37 °C, simulated gastric fluid, thermodynamic from solid, SGF, 0.5 h, 37° C., read-out: Solubility (visual observation)) greater than 5000 µg/mL. The pH of filtrate ([6]; SGF, 0.5 h) was 1.0, the “blood: plasma” value ([7]; fasting condition, female) was 521% and the “blood: plasma” value ([7]; fasting condition, male (first value)) was 1452%. For the same compound, the “plasma drug concentration, male relative to female” value ([7]; fasting condition, plasma) was “about 6 times”, the “whole blood drug concentration, male relative to female” value ([7]; fasting condition, whole blood) was 1.9 times and the AUC(0-inf) ([7]; female, plasma, Non-fast) was 466 µg·h/mL. The Cmax ([7]; female, plasma, Non-fast) was 24000 ng/mL, the MRT last ([7]; female, plasma, Non-fast) was 12.6 h and the Tmax ([7]; female, plasma, Non-fast) was 7.33 h. The half-life ([7]; female, plasma, Non-fast) was 308 min, the AUC(0-t) ([7]; female, plasma, Non-fast, plasma, female, read-out: AUC0-24 h) was 378 µg·h/mL and the AUC(0-t) ([7]; female, plasma, Non-fast, plasma, female, read-out: AUClast) was 465 µg·h/mL. The AUC(0-inf) ([7]; female, plasma, fast) was 9.21 µg·h/mL, the Cmax ([7]; female, plasma, fast) was 1680 ng/mL and the MRT last ([7]; female, plasma, fast) was 8.06 h. For the same compound, the Tmax ([7]; female, plasma, fast) was 1.33 h, the half-life ([7]; female, plasma, fast) was 720 min and the AUC(0-t) ([7]; female, plasma, fast, plasma, female, read-out: AUC0-24 h) was 7.54 µg·h/mL. It also gave an AUC(0-t) ([7]; female, plasma, fast, plasma, female, read-out: AUClast) of 8.16 µg·h/mL, an AUC(0-inf) [7, 8] of 955 µg·h/mL and a Cmax [7, 8] of 23500 ng/mL. For the same compound, the MRT last [7, 8] was 18.7 h, the Tmax [7, 8] was 6 h and the half-life [7, 8] was 1510 min. It also gave an AUC(0-t) ([7]; female, whole blood, Non-fast, blood, female, read-out: AUC0-24 h) of 432 µg·h/mL, an AUC(0-t) ([7]; female, whole blood, Non-fast, blood, female, read-out: AUClast) of 675 µg·h/mL and an AUC(0-inf) [7, 9] of 242 µg·h/mL. It also gave a Cmax [7, 9] of 10300 ng/mL, an MRT last [7, 9] of 14.1 h and a Tmax [7, 9] of 1.83 h. The half-life [7, 9] was 1340 min, the AUC(0-t) ([7]; female, whole blood, fast, blood, female, read-out: AUC0-24 h) was 134 µg·h/mL and the AUC(0-t) ([7]; female, whole blood, fast, blood, female, read-out: AUClast) was 187 µg·h/mL. The AUC(0-inf) ([7]; male, plasma, Non-fast) was 367 µg·h/mL, the Cmax ([7]; male, plasma, Non-fast) was 18900 ng/mL and the MRT last ([7]; male, plasma, Non-fast) was 11.8 h. The Tmax ([7]; male, plasma, Non-fast) was 4.67 h, the half-life ([7]; male, plasma, Non-fast) was 320 min and the AUC(0-t) ([7]; male, plasma, Non-fast, plasma, male, read-out: AUC0-24 h) was 305 µg·h/mL. For the same compound, the AUC(0-t) ([7]; male, plasma, Non-fast, plasma, male, read-out: AUClast) was 366 µg·h/mL, the AUC(0-inf) ([7]; male, plasma, fast) was 40.2 µg·h/mL and the Cmax ([7]; male, plasma, fast) was 5700 ng/mL. For the same compound, the MRT last ([7]; male, plasma, fast) was 13.6 h, the Tmax ([7]; male, plasma, fast) was 9 h and the AUC(0-t) ([7]; male, plasma, fast, plasma, male, read-out: AUC0-24 h) was 48.8 µg·h/mL. The AUC(0-t) ([7]; male, plasma, fast, plasma, male, read-out: AUClast) was 81.4 µg·h/mL, the AUC(0-inf) [7, 10] was 818 µg·h/mL and the Cmax [7, 10] was 19000 ng/mL. For the same compound, the MRT last [7, 10] was 18.9 h, the Tmax [7, 10] was 4.67 h and the half-life [7, 10] was 1710 min. It also gave an AUC(0-t) ([7]; male, whole blood, Non-fast, blood, male, read-out: AUC0-24 h) of 353 µg·h/mL, an AUC(0-t) ([7]; male, whole blood, Non-fast, blood, male, read-out: AUClast) of 557 µg·h/mL and an AUC(0-inf) ([7]; male, whole blood, fast, blood) of 521 µg·h/mL. The Cmax ([7]; male, whole blood, fast, blood) was 14600 ng/mL, the MRT last ([7]; male, whole blood, fast, blood) was 19.5 h and the Tmax ([7]; male, whole blood, fast, blood) was 9.33 h. For the same compound, the half-life ([7]; male, whole blood, fast, blood) was 893 min, the AUC(0-t) ([7]; male, whole blood, fast, blood, male, read-out: AUC0-24 h) was 255 µg·h/mL and the AUC(0-t) ([7]; male, whole blood, fast, blood, male, read-out: AUClast) was 449 µg·h/mL. For the same compound, the “blood: plasma” value ([7]; non-fasting condition, female) was 116% and the “blood: plasma” value ([7]; non-fasting condition, male (first value)) was 114%.
